Experimental data taken from the supplement of paper PMC10307832.

What was measured:
Assay in all cases: relative viability (nuclei count vs DMSO), 5 days (fraction); higher = more cells survive
[1] = compound: Cc1ccc(C(=O)N(CCCN)[C@@H](c2nc3cc(Cl)ccc3c(=O)n2Cc2ccccc2)C(C)C)cc1 [Ispinesib] + CS(=O)(=O)N1CCN(Cc2cc3nc(-c4cccc5[nH]ncc45)nc(N4CCOCC4)c3s2)CC1 [Pictilisib] (partner 1 µM)
In short: (§1)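 Lung cancer cell lines were pin-tool dosed in 1536-well plates on the day after seeding, with either a lone drug or a fixed anchor-drug dose plus five library-drug doses (not always all listed) in √10 steps. Nuclei were counted on 4× images after 5 days. Relative viability is the ratio of treated-well to vehicle-well nuclei counts, with each value a median of duplicate plates.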

[2] = compound: Cc1ccc(C(=O)N(CCCN)[C@@H](c2nc3cc(Cl)ccc3c(=O)n2Cc2ccccc2)C(C)C)cc1 [Ispinesib] + O=C(c1cc(Cc2n[nH]c(=O)c3ccccc23)ccc1F)N1CCN(C(=O)C2CC2)CC1 [Olaparib] (partner 8 µM)
In short: as §1

[3] = compound: Cc1ccc(C(=O)N(CCCN)[C@@H](c2nc3cc(Cl)ccc3c(=O)n2Cc2ccccc2)C(C)C)cc1 [Ispinesib] + Cc1cc(Nc2cc(N3CCN(C)CC3)nc(Sc3ccc(NC(=O)C4CC4)cc3)n2)n[nH]1 [Tozasertib] (partner 0.1 µM)
In short: as §1

[4] = compound: Cc1ccc(C(=O)N(CCCN)[C@@H](c2nc3cc(Cl)ccc3c(=O)n2Cc2ccccc2)C(C)C)cc1 [Ispinesib] + COc1cc2c(Oc3ccc(NC(=O)C4(C(=O)Nc5ccc(F)cc5)CC4)cc3F)ccnc2cc1OCCCN1CCOCC1 [Foretinib] (partner 0.25 µM)
In short: as §1

Row | Cell Line | relative viability ([1]; first compound 0.001 µM) | relative viability ([1]; first compound 0.003162 µM) | relative viability ([1]; first compound 0.01 µM) | relative viability ([1]; first compound 0.03162 µM) | relative viability ([1]; first compound 0.1 µM) | relative viability ([2]; first compound 0.001 µM) | relative viability ([2]; first compound 0.003162 µM) | relative viability ([2]; first compound 0.01 µM) | relative viability ([2]; first compound 0.03162 µM) | relative viability ([2]; first compound 0.1 µM) | relative viability ([3]; first compound 0.001 µM) | relative viability ([3]; first compound 0.003162 µM) | relative viability ([3]; first compound 0.01 µM) | relative viability ([3]; first compound 0.03162 µM) | relative viability ([3]; first compound 0.1 µM) | relative viability ([4]; first compound 0.001 µM) | relative viability ([4]; first compound 0.003162 µM) | relative viability ([4]; first compound 0.01 µM) | relative viability ([4]; first compound 0.03162 µM) | relative viability ([4]; first compound 0.1 µM)
1 | HOP-62 | 0.568 | 0.784 | 0.785 | 0.306 | 0.148 | 0.62 | 0.215 | 0.341 | 0.312 | 0.186 | 0.373 | 0.47 | 0.389 | 0.449 | 0.406 | 1.11 | 1.32 | 1.35 | 1.11 | 0.601
2 | LC-2-ad | 0.507 | 0.509 | 0.438 | 0.0946 | 0.133 | 0.728 | 0.728 | 0.711 | 0.816 | 0.293 | 0.42 | 0.52 | 0.384 | 0.322 | 0.241 | 0.892 | 0.863 | 1.09 | 0.63 | 0.361
3 | NCI-H522 | – | – | – | – | – | 0.634 | 0.585 | 0.779 | 0.571 | 0.555 | 0.562 | 0.508 | 0.542 | 0.557 | 0.702 | – | – | – | – | –
4 | NCI-H322M | 0.527 | 0.489 | 0.54 | 0.44 | 0.397 | 0.804 | 0.81 | 0.855 | 0.786 | 0.549 | 0.531 | 0.275 | 0.445 | 0.333 | 0.396 | 1.09 | 0.994 | 0.957 | 0.498 | 0.43
5 | SK-LU-1 | 0.556 | 0.65 | 0.674 | 0.301 | 0.354 | 0.606 | 0.449 | 0.393 | 0.435 | 0.356 | 0.393 | 0.335 | 0.31 | 0.288 | 0.289 | 1.01 | 0.806 | 0.942 | 0.821 | 0.286
6 | NCI-H1734 | 0.414 | 0.476 | 0.506 | 0.34 | 0.233 | 0.613 | 0.658 | 0.64 | 0.675 | 0.449 | 0.258 | 0.121 | 0.25 | 0.254 | 0.218 | 0.809 | 0.859 | 1.08 | 0.827 | 0.343
7 | HCC-44 | 0.768 | 0.858 | 0.68 | 0.646 | 0.106 | 0.984 | 0.993 | 1.03 | 1.06 | 0.938 | 0.928 | 1.05 | 1.09 | 0.679 | 0.209 | – | – | – | – | –
8 | NCI-H1703 | 0.248 | 0.218 | 0.181 | 0.123 | 0.136 | 0.601 | 0.312 | 0.246 | 0.127 | 0.105 | – | – | – | – | – | 0.331 | 0.372 | 0.346 | 0.16 | 0.157
9 | NCI-H2170 | 0.317 | 0.312 | 0.295 | 0.254 | 0.288 | 0.593 | 0.679 | 0.651 | 0.481 | 0.444 | 0.741 | 0.689 | 0.848 | 0.556 | 0.41 | 0.997 | 1.03 | 0.96 | 0.806 | 0.359
